The target in one series is T1, CYP1B1 (Homo sapiens, UniProt Q16678).
T1 sequence (Q16678 1-543): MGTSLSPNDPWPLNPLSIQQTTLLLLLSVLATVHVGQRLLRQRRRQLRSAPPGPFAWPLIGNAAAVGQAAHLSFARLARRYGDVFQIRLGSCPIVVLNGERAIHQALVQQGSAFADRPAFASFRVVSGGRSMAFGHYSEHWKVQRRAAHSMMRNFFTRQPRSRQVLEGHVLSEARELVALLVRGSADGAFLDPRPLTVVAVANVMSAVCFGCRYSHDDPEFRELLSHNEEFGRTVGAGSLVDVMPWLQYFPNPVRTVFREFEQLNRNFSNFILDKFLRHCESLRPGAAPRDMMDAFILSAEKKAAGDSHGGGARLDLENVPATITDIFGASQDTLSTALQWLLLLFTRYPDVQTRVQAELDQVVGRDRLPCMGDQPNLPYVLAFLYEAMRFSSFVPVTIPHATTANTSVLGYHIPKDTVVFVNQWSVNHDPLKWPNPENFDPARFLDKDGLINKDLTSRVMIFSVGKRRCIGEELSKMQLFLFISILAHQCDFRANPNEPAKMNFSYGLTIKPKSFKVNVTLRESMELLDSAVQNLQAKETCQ
T1 sequence (P16435 2-677 partner): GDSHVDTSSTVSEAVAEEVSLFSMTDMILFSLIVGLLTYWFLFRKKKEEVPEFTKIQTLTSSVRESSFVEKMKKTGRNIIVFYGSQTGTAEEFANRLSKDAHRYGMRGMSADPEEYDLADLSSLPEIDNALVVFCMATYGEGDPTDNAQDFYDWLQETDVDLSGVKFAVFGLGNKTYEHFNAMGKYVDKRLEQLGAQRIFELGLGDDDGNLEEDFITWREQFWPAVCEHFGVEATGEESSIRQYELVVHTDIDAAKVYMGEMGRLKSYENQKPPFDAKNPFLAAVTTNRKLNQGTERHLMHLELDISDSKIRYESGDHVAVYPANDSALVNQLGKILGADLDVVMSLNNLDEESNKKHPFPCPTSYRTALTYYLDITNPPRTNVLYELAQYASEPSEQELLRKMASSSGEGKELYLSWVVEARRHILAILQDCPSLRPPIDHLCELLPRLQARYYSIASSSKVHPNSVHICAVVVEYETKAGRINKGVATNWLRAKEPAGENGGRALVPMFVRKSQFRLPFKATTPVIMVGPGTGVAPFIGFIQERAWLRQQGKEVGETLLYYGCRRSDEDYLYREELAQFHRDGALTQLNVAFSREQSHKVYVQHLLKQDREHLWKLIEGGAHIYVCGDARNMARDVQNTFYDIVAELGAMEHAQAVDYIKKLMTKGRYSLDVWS
As to the kind of experiment: recombinant CYP activity with fluorogenic substrate. In kind it is biochemical.

A further series concerns human liver microsomes. As to the kind of experiment: paraoxon formation from parathion. Type of series: biochemical.
The test system of the next series is liver Ces. As to the kind of experiment: liver carboxylesterase. Type of series: in vivo, rat. The following applies: menadione 20 min after parathion.
Series [1] deals with T2, CYP1A2 (Homo sapiens, UniProt P05177).
T2 sequence (P05177 2-516 limits assumed): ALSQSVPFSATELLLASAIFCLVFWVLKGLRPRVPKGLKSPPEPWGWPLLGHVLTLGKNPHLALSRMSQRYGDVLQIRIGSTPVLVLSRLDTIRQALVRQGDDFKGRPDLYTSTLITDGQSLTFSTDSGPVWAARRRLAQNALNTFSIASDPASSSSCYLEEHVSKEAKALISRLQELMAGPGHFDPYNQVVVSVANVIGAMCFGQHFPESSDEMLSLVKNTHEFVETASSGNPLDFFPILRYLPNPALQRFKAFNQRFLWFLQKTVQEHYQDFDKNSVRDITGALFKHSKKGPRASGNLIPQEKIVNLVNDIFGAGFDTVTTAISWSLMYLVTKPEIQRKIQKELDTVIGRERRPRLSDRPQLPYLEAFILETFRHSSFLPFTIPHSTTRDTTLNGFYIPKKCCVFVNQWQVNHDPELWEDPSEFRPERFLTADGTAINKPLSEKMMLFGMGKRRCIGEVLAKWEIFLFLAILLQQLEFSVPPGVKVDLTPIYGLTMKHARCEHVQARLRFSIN

In series [2] the target is T2, CYP1A2. The following applies: 50 µM menadione; parathion 200 µM.
The target in the next series is T3, CYP1A1 (Homo sapiens, UniProt P04798).
T3 sequence (P04798 1-512): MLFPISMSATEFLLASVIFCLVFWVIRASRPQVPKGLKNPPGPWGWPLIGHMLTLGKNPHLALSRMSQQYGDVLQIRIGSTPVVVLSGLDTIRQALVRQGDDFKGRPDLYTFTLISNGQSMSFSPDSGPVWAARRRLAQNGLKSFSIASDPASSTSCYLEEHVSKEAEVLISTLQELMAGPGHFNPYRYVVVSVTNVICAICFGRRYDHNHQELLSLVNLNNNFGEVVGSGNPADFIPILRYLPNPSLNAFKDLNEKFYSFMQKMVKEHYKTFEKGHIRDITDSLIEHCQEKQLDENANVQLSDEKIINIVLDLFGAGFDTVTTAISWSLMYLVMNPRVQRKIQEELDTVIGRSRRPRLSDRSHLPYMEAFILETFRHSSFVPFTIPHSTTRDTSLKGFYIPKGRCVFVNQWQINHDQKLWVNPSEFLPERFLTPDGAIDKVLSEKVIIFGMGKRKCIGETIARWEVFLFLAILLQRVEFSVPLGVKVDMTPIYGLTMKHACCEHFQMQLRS
T3 sequence (P16435 2-677 partner): T1 sequence (P16435 2-677 partner)
The experiment in a line: recombinant CYP activity with fluorogenic substrate.

Series [3] concerns the target T2, CYP1A2. The description is as above.
For a further series, the target named is CYP2D6 (Homo sapiens, UniProt P10635). The series is described as above.
Chain of CYP2D6 (P10635 whole entry, one chain of several): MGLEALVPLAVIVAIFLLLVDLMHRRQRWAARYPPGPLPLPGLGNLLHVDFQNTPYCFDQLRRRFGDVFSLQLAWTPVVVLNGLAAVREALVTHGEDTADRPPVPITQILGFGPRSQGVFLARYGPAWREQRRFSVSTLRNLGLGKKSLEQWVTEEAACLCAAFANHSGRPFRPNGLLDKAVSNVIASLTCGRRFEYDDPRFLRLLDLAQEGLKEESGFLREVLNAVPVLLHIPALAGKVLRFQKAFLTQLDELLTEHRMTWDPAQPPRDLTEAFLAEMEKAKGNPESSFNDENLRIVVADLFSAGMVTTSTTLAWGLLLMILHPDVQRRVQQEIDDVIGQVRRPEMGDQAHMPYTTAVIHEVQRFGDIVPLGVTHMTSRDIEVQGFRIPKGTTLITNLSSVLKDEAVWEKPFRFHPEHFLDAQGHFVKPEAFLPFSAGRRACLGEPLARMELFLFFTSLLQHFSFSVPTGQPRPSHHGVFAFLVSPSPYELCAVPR

For orientation: IC50 means the concentration that inhibits the measured activity by half. With `CC1=CC(=O)c2ccccc2C1=O` [menadione, 2-methylnaphthalene-1,4-dione], the IC50 was found to be 7.02 ± 0.53 µM on CYP1B1, 4.39 ± 0.42 µM at CYP1A1, 4.51 ± 0.57 µM on CYP1A2 [3] and 4.6 ± 0.87 µM at CYP2D6. The paraoxon formation entry with human liver microsomes and at CYP1A2 [1] was “marked decrease” throughout. In addition, the “inhibition of liver Ces by parathion” value with liver Ces was “reduced the inhibition”. Besides, the “CYP1A2 mediated activation of parathion and AChE inhibition” value at CYP1A2 [2] is recorded as “completely abolished”.
